Our source for the EC50 values is patent publication US12110305B2, “Prodrugs of phosphonamide nucleotide analogues and their pharmaceutical use” (priority 2020, dated 2024).

For this assay, the system named is HIV-1 (IIIB). Briefly: Antiviral (HIV) assay in MT-4 cells. Format: cell-based. Conditions: Human immunodeficiency virus 1, MT4, 120 h; HIV-1 IIIB in MT-4 cells, 5 days incubation, Cell Titer Glo; average of at least two independent experiments. As to the method: Example 104: Antiviral (HIV) Assay in MT-4 Cells
Compounds were tested in a high-throughput 384-well assay format for their ability to inhibit the replication of HIV-1 (IIIB) in MT-4 cells. Compounds were serially diluted (1:3) in DMSO on 384-well polypropylene plates and further diluted 200-fold into complete RPMI media (10% FBS, 1% P/S) using the Biotek Micro Flow and Labcyte ECHO acoustic dispenser. Each plate contained up to 8 test compounds, with negative (no drug) and positive (5 μM AZT) controls. MT-4 cells were pre-treated with 10 μL of either RPMI (mock-infected) or a fresh 1:250 dilution of HIV-1 IIIB concentrated virus stock. Infected and uninfected MT-4 cells were further diluted in complete RPMI media and added to each plate using a Micro Flow dispenser. After 5 days incubation in a humidified and temperature-controlled incubator (37° C.), Cell Titer Glo (Promega) was added to the assay plates and chemiluminescence read using an Envision plate-reader. EC50 values were defined as the compound concentration that causes a 50% decrease in luminescence signal and were calculated using a sigmoidal dose-response model to generate curve fits and are shown in Table 1.
`CCC(CC)CCOC(=O)C(C)(C)NP(=O)(CO[C@H](C)Cn1cnc2c(N)ncnc21)NC(C)(C)C(=O)OCCC(CC)CC` [Example 7, Bis(3-ethylpentyl) 2,2′-(((((1-(6-amino-9H-purin-9-yl)propan-2-yl)oxy)methyl)phosphoryl)bis(azanediyl))(R)-bis(2-methylpropanoate)] displayed an EC50 of 9 nM.

In turn, `CCCCCCOC(=O)C(C)(C)NP(=O)(CO[C@H](C)Cn1cnc2c(N)ncnc21)NC1(C(=O)OCCCCCC)CC1` (stereo partly drawn) [Example 20, Hexyl 1-((((((R)-1-(6-amino-9H-purin-9-yl)propan-2-yl)oxy)methyl)((1-(hexyloxy)-2-methyl-1-oxopropan-2-yl)amino)phosphoryl)amino)cyclopropane-1-carboxylate] registered an EC50 of 12 nM.

Regarding `CCCCCCCOC(=O)C(C)(C)NP(=O)(CO[C@H](C)Cn1cnc2c(N)ncnc21)NC(C)(C)C(=O)OCCCCCCC` [Example 66, Diheptyl 2,2′-(((((1-(6-amino-9H-purin-9-yl)propan-2-yl)oxy)methyl)phosphoryl)bis(azanediyl))(R)-bis(2-methylpropanoate)], the midpoint of the response, the EC50, lay at 9 nM.

`C[C@H](Cn1cnc2c(N)ncnc21)OCP(=O)(NC(C)(C)C(=O)O[C@H]1C[C@H](C(F)(F)F)C1)NC(C)(C)C(=O)O[C@H]1C[C@H](C(F)(F)F)C1` [Example 26, Bis(trans-3-(trifluoromethyl)cyclobutyl) 2,2′-((((((R)-1-(6-amino-9H-purin-9-yl)propan-2-yl)oxy)methyl)phosphoryl)bis(azanediyl))bis(2-methylpropanoate)]: the concentration for a half-maximal effect (EC50) worked out at 6 nM.

For the compound `CCCCCCOC(=O)C(C)(C)NP(=O)(CO[C@H](C)Cn1cnc2c(N)ncnc21)NC(C)(C)C(=O)OCC12CC(C1)C2` (stereo partly drawn) [Example 77, Bicyclo[1.1.1]pentan-1-ylmethyl 2-((((((R)-1-(6-amino-9H-purin-9-yl)propan-2-yl)oxy)methyl)((1-(hexyloxy)-2-methyl-1-oxopropan-2-yl)amino)phosphoryl)amino)-2-methylpropanoate], the EC50 is > 500 nM.

The compound `C[C@H](Cn1cnc2c(N)ncnc21)OCP(=O)(NC(C)(C)C(=O)OC1CCC(C)(C)CC1)NC(C)(C)C(=O)OC1CCC(C)(C)CC1` [Example 44, Bis(4,4-dimethylcyclohexyl) 2,2′-(((((1-(6-amino-9H-purin-9-yl)propan-2-yl)oxy)methyl)phosphoryl)bis(azanediyl))(R)-bis(2-methylpropanoate)] gave an EC50 of 7 nM.

`C[C@H](Cn1cnc2c(N)ncnc21)OCP(=O)(NC(C)(C)C(=O)OC1CC2(CCCCC2)C1)NC(C)(C)C(=O)OC1CC2(CCCCC2)C1` (stereo partly drawn) [Example 86, Di(spiro[3.5]nonan-2-yl) 2,2′-(((((1-(6-amino-9H-purin-9-yl)propan-2-yl)oxy)methyl)phosphoryl)bis(azanediyl))(R)-bis(2-methylpropanoate)]: the concentration giving a half-maximal response (EC50) worked out at 5 nM.

The compound `C[C@H](Cn1cnc2c(N)ncnc21)OCP(=O)(NC(C)(C)C(=O)OC1CC2(CCC2)C1)NC(C)(C)C(=O)OC1CC2(CCC2)C1` (stereo partly drawn) [Example 41, Di(spiro[3.3]heptan-2-yl) 2,2′-(((((1-(6-amino-9H-purin-9-yl)propan-2-yl)oxy)methyl)phosphoryl)bis(azanediyl))(R)-bis(2-methylpropanoate)] showed an EC50 of 3 nM.

Regarding `C[C@H](Cn1cnc2c(N)ncnc21)OCP(=O)(NC(C)(C)C(=O)O[C@H]1CC[C@H](c2ccccc2)CC1)NC(C)(C)C(=O)O[C@H]1CC[C@H](c2ccccc2)CC1` [Example 93, Bis(trans-4-phenylcyclohexyl) 2,2′-((((((R)-1-(6-amino-9H-purin-9-yl)propan-2-yl)oxy)methyl)phosphoryl)bis(azanediyl))bis(2-methylpropanoate)], it took 97 nM to reach a half-maximal effect (EC50).

As to `CCCCCCOC(=O)C(C)(C)NP(=O)(CO[C@H](C)Cn1cnc2c(NC(=O)OCCC)ncnc21)NC(C)(C)C(=O)OCCCCCC` [Example 31, Dihexyl 2,2′-(((((1-(6-((propoxycarbonyl)amino)-9H-purin-9-yl)propan-2-yl)oxy)methyl)phosphoryl)bis(azanediyl))(R)-bis(2-methylpropanoate)], the EC50 is > 500 nM.

`C[C@H](Cn1cnc2c(N)ncnc21)OCP(=O)(NC(C)(C)C(=O)OCCC1CCCCC1)NC(C)(C)C(=O)OCCC1CCCCC1` [Example 14, Bis(2-cyclohexylethyl) 2,2′-(((((1-(6-amino-9H-purin-9-yl)propan-2-yl)oxy)methyl)phosphoryl)bis(azanediyl))(R)-bis(2-methylpropanoate)]: the EC50 worked out at 7 nM.

With `C[C@H](Cn1cnc2c(N)ncnc21)OCP(=O)(NC(C)(C)C(=O)OCC1CCCCCC1)NC(C)(C)C(=O)OCC1CCCCCC1` [Example 89, Bis(cycloheptylmethyl) 2,2′-(((((1-(6-amino-9H-purin-9-yl)propan-2-yl)oxy)methyl)phosphoryl)bis(azanediyl))(R)-bis(2-methylpropanoate)], the response was half-maximal at 6 nM (EC50).

`C[C@H](Cn1cnc2c(N)ncnc21)OCP(=O)(NC(C)(C)C(=O)OCc1ccccc1)NC(C)(C)C(=O)OCc1ccccc1` [Example 3, Dibenzyl 2,2′-(((((1-(6-amino-9H-purin-9-yl)propan-2-yl)oxy)methyl)phosphoryl)bis(azanediyl))(R)-bis(2-methylpropanoate)] gave a 50% effective concentration (EC50) of 10 nM.

Regarding `CCCCCCOC(=O)C(C)(C)NP(=O)(CO[C@H](C)Cn1cnc2c(N)ncnc21)NC1(C(=O)OCCCCCC)CCC1` (stereo partly drawn) [Example 18, Hexyl 1-((((((R)-1-(6-amino-9H-purin-9-yl)propan-2-yl)oxy)methyl)((1-(hexyloxy)-2-methyl-1-oxopropan-2-yl)amino)phosphoryl)amino)cyclobutane-1-carboxylate], the response was half-maximal at 13 nM (EC50).

As for `CCCCCCOC(=O)C(C)(C)NP(=O)(CO[C@H](C)Cn1cnc2c(N)ncnc21)N[C@]1(C(=O)OCCCCCC)C[C@H]1CC` (stereo partly drawn) [Example 16, Hexyl (1R,2R)-1-((((((R)-1-(6-amino-9H-purin-9-yl)propan-2-yl)oxy)methyl)((1-(hexyloxy)-2-methyl-1-oxopropan-2-yl)amino)phosphoryl)amino)-2-ethylcyclopropane-1-carboxylate], the EC50 turned out to be 35 nM.

`CCCOC(=O)C(C)(C)NP(=O)(CO[C@H](C)Cn1cnc2c(N)ncnc21)NC(C)(C)C(=O)OCCC` [Example 36, Dipropyl 2,2′-(((((1-(6-amino-9H-purin-9-yl)propan-2-yl)oxy)methyl)phosphoryl)bis(azanediyl))(R)-bis(2-methylpropanoate)] displayed an EC50 of 14 nM.

`C[C@H](Cn1cnc2c(N)ncnc21)OCP(=O)(NC(C)(C)C(=O)OCCC(C)(C)C)NC(C)(C)C(=O)OCCC(C)(C)C` [Example 8, Bis(3,3-dimethylbutyl) 2,2′-(((((1-(6-amino-9H-purin-9-yl)propan-2-yl)oxy)methyl)phosphoryl)bis(azanediyl))(R)-bis(2-methylpropanoate)] returned an EC50 of 5 nM.

Turning to `CCCCCCOC(=O)C(C)(C)NP(=O)(CO[C@H](C)Cn1cnc2c(N)ncnc21)NC(C)(C)C(=O)OC(C)C1CC1` (stereo partly drawn) [Example 81, 1-Cyclopropylethyl 2-((((((R)-1-(6-amino-9H-purin-9-yl)propan-2-yl)oxy)methyl)((1-(hexyloxy)-2-methyl-1-oxopropan-2-yl)amino)phosphoryl)amino)-2-methylpropanoate], the 50% effective concentration (EC50) was > 500 nM.
